Here are results for nine compounds from publication PMC2605521 (Journal of medicinal chemistry, 2008).

Assay [1] addresses T1, μ-opioid receptor (Homo sapiens, UniProt P35372). Description: [125I]Ioxy binding, CHO cells expressing μ-opioid receptor. As to conditions: for affinity for μ-receptors (in words): compared with the N-methyl analogues 46 and 47.
Assay [2] deals with δ-opioid receptor (Homo sapiens, UniProt P41143). The assay can be described thus: [125I]Ioxy binding, CHO cells expressing δ-opioid receptor.
Sequence of δ-opioid receptor (P41143 whole entry): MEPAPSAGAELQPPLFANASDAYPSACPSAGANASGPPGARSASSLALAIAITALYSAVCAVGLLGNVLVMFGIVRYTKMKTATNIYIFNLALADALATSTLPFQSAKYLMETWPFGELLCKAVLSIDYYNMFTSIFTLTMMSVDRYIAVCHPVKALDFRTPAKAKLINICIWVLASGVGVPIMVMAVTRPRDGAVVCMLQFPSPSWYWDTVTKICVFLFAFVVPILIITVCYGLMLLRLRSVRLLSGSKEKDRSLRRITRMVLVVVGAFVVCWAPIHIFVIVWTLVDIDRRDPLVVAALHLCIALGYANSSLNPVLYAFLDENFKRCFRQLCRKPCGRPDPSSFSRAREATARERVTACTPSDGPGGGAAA
Assay [3] has as its target T2, μ-receptors (Homo sapiens, UniProt P35372). As to conditions: [35S]GTPγS assay; cited from earlier work.
For assay [4], the target named is T1, μ-opioid receptor. As to conditions: read-out: Ki at μ-receptors; earlier work; cited from earlier work.
For assay [5] the following is noted: cited from earlier work.
Assay [6] deals with δ receptors (Homo sapiens, UniProt P41143). The assay can be described thus: [35S]GTP-γ-S functional assay, δ-antagonism. The format is biochemical. On the technique in general: Binding of GTPγS marks nucleotide exchange on a G protein.
Sequence of δ receptors (P41143 whole entry): as above
The target of assay [7] is T2, μ-receptors. Description: biochemical. The format is biochemical.
Assay [8] addresses κ receptors (Homo sapiens, UniProt P41145). The assay can be described thus: [35S]GTP-γ-S functional assay, κ-antagonism. It is filed as biochemical. The conditions noted are these: for κ-antagonist activity in the functional assay (in words): [35S]GTPγS assay.

“Also recorded” adds a separate entry of the source. Like-named read-outs stand apart in the source and are kept apart here.

T2 sequence (P35372 whole entry, species assumed): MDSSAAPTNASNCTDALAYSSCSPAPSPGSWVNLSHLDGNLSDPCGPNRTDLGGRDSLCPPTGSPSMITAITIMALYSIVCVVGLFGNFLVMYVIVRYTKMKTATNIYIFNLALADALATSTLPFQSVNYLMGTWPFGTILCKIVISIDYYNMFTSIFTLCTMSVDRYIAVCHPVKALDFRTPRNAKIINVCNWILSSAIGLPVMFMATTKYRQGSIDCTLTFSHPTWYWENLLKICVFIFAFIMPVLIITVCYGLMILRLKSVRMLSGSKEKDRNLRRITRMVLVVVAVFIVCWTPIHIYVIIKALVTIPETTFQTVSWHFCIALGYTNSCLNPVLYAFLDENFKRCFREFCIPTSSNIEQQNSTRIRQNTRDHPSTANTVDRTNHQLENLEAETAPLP
T1 sequence (P35372 whole entry, species assumed): as above
Sequence of κ receptors (P41145 whole entry): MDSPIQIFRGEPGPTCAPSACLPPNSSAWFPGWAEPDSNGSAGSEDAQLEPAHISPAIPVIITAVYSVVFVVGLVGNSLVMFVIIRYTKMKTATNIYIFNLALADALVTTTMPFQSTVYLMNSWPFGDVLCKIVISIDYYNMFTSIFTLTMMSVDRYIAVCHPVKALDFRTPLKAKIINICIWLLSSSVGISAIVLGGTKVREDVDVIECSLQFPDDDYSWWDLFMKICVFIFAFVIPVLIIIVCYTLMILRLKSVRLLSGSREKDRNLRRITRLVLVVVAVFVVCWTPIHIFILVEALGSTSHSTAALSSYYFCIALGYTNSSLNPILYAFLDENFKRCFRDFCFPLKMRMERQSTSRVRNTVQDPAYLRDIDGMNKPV

Regarding `CN1C[C@@H]2Oc3c(O)cccc3[C@@]23CCC[C@@H]1C3` (racemic) [Compound 46, (3R*,6aS*,11aR*)-1,3,4,5,6,11a-Hexahydro-2-methyl-2H-3,6a-methanobenzofuro[2,3-c]azocin-10-ol], affinity in assay [1] was put at a Ki of 8000 ± 406 nM.

Regarding `CN1C[C@@H]2Oc3ccc(O)cc3[C@@]23CCC[C@@H]1C3` (racemic) [Compound 47, (3R*,6aS*,11aR*)-1,3,4,5,6,11a-Hexahydro-2-methyl-2H-3,6a-methanobenzofuro [2,3-c]azocin-8-ol], the Ki (in general, a dissociation constant, usually derived from enzyme kinetics or from competition with a known ligand) in assay [1] amounted to 2930 ± 203 nM.

Take `CN1CC[C@@]23C[C@@H]1CC[C@H]2Oc1c(O)cccc13` (racemic) [Compound 20, (4R*,6aS*,11bR*)-2,3,4,5,6,6a-Hexahydro-3-methyl-1H-4,11b-methanobenzofuro[3,2-d]azocine-8-ol]: the Ki in assay [2] was greater than 10000 nM.

Take `Oc1cccc2c1O[C@H]1[C@H]3CCC[C@@]21CCN3CCc1ccccc1` (single isomer, unassigned) [(−)-N-phenethyl ortho-f isomer]: the “potency as μ-opioid antagonist (in words)” value in assay [3] was “more potent than naloxone”. Besides, the inhibition constant (Ki) in assay [4] is 7 nM.

With `Oc1ccc2c(c1)[C@]13CCC[C@H](C1)N(CCc1ccccc1)C[C@@H]3O2` (relative stereo) [Compound 52], the “affinity for μ-receptors (in words)” value in assay [1] is reported as “only slight affinity”.

For `Oc1cccc2c1O[C@H]1[C@@H]3CCC[C@]21CCN3CCc1ccccc1` (single isomer, unassigned) [(−)-N-phenethyl para-e isomer], the “antinociceptive activity (in words)” value in assay [5] is listed as “morphine-like antinociceptive”.

`Oc1cccc2c1O[C@H]1CN(CCc3ccccc3)[C@@H]3CCC[C@]21C3` (racemic) [Compound 51, (3R*,6aS*,11aR*)-1,3,4,5,6,11a-Hexahydro-2-phenethyl-2H-3,6a-methanobenzofuro [2,3-c]azocin-10-ol]: in assay [1], the “affinity for μ-receptors (in words)” value is “only slight affinity”.

`Oc1cccc2c1O[C@@H]1CC[C@H]3C[C@@]21CCN3CCc1ccccc1` (racemic) [Compound 24, (4R*,6aS*,11bR*)-2,3,4,5,6,6a-Hexahydro-3-phenethyl-1H-4,11b-methanobenzofuro[3,2-d]azocine-8-ol]: in assay [6], the Kb worked out at 8000 ± 1500 nM. In assay [7], the Kb came to 77 ± 13 nM and the “μ-antagonist activity in the functional assay (in words)” value is “weak μ-antagonist activity”. Further, in assay [8], the Kb was 21 ± 3.4 nM and the “κ-antagonist activity in the functional assay (in words)” value is listed as “moderately active κ-antagonists; also recorded: moderately potent κ-receptor antagonists”.

As for `Oc1ccc2c(c1)[C@@]13CCN(CCc4ccccc4)[C@@H](CC[C@H]1O2)C3` (racemic) [Compound 16, (4R*,6aS*,11bR*)-2,3,4,5,6,6a-Hexahydro-3-phenethyl-1H-4,11b-methanobenzofuro[3,2-d]azocine-10-ol], the Kb was 17000 ± 4200 nM in assay [6], 260 ± 79 nM in assay [7] and 19 ± 5.2 nM in assay [8]. For the same compound, in assay [8], the “κ-antagonist activity in the functional assay (in words)” value is given as “moderately active κ-antagonists; also recorded: moderately potent κ-receptor antagonists”.
